Our source for the IC50 and EC50 values is patent publication US20260027118A1, “COMPOSITIONS USEFUL FOR MODULATING SPLICING” (Skyhawk Therapeutics, Inc., priority 2022, published 2026).

Assay [1] has as its system ATXN3 transcripts containing exon 4. Put plainly: ATXN3 Quantitative Splicing Assay (qPCR, E4E5 primers/probe). Particulars: SK-N-MC cells, treated with compounds for 24 h, qPCR of transcripts containing exon 4. The assay is classed as cell-based, Human. The protocol: Human neuroblastoma SK-N-MC cells were plated in 384-well plates at 20,000 cells/well. Twenty-four hours after plating, cells were treated with compounds for 24 h at appropriate concentrations ranging from 30.M to 0.6 nM (0.300 DMS0). Treated cells were lysed in 15 μL of lysis buffer, and cDNA was synthesized using the Fast Advanced Cells-to-Ct kit. Two μL of each cDNA was used in qPCR reactions to confirm the exon 4 skipped transcripts of ATXN3. A second set of primers/probe E4E5 was used to detect the transcripts containing exon 4. The third set of primers/probe E8E9 was used to detect total gene level of ATXN3. The qPCR reactions were prepared in 384-well plates in 10 μL volume, using TaqMan™ Fast Advanced Master Mix with primers and probes shown in the table below. Reactions were run in a Quant Studio 6 qPCR instrument with default settings.
The primers and probes are listed below in Table 4.
(Real-time PCR tracks product formation cycle by cycle.)

The next assay deals with total ATXN3 protein. Nature of the assay: ATXN3 total protein assay (Mesoscale Discovery). As to conditions: SK-N-MC cells, 48 hours incubation, MSD assay. The assay is classed as cell-based, Human. The method, then: Human neuroblastoma SK-N-MC cells were seeded at 10,000 cells/well in 384 well plates one day prior to compound treatment. The concentrations of compounds were tested at appropriate doses ranging from 30 μM to 0.6 nM. After incubation for 48 hours, the cells were lysed with 25 μL of lysis buffer containing protease inhibitors, and total ATXN3 protein levels were assessed by Mesoscale Discovery (MSD) assay developed with one pair of anti-ATXN3 antibodies. The capture and detect antibodies were raised in mouse and rabbit respectively. Anti-rabbit MSD-ST antibody was used for secondary antibody. ATXN3 recombinant protein was used for standards. The readouts were captured with 35 μL of MSD read buffer and multi-array 384-well high binding plates.

A further assay relates to ATXN3-HiBiT protein. Put plainly: ATXN3 HiBiT assay (Nano Glo HiBiT luminescence). The assay is classed as cell-based. As to conditions: Kelly-ATXN3-HiBiT cells, luminescence read out 48 h after addition of the compound. The text has this:
To monitor ATXN3 protein levels by luminescence, a Kelly-ATXN3-HiBiT cell line with homozygous knock-in of HiBiT at the C-terminus of the endogenous ATXN3 gene was used (knock-in of the HiBiT-tag coding sequence SEQ ID NO. 14: 5′[…]3′ into exon 11 of ATXN3 -position 1114 of ATXN3 RefSeq NM_004993.6). Manipulations of the Kelly-ATXN3-HiBiT cell line that result in downregulation of the ATXN3-HiBiT protein (through modulation of ATXN3-HiBiT pre-mRNA splicing) can be followed by monitoring the luminescence signal of the HiBiT tag using the Nano Glo HiBiT Lytic Detection System (Promega, #N3050). Kelly-ATXN3-HiBiT cells were maintained in RPMI 1640 w/Glutamax (Gibco, #61870010), 10% FBS (Sigma Aldrich, #F8687), 1% Penicillin/Streptomycin (Gibco, #15140-122) at 37° C., 5% CO2. To assess HiBiT-luminescence signal upon compound treatment, 2000 Kelly-ATXN3-HiBiT cells were seeded per well in 384 plate format. Compounds were added 24 h after seeding. ATXN3-HiBiT-luminescence signal was read out 48 h after addition of the compound using the Nano Glo HiBiT Lytic Detection System (Promega, #N3050) according to the manufacturer's instructions. To control for cell viability, an identically prepared sister plate was read out with the CellTiter-Glo® 2.0 Assay (Promega, #G9243) according to the manufacturer's instructions. Fold changes of ATXN3-HiBiT-luminescence and of CellTiter-Glo viability signals were calculated relative to a DMSO control condition.
Background: HiBiT is a short tag that completes a luciferase, so light tracks the accessible tagged protein.

The term IC50 denotes the concentration that gives 50% inhibition. By EC50 is commonly meant the concentration that produces a half-maximal response. With `CC#Cc1cc(NCc2cccs2)c2oc(C[C@H](C)N)c(C#CC)c2n1` [Compound 28, 2-[(2S)-2-aminopropyl]-3,5-bis(prop-1-yn-1-yl)-N-(thiophen-2-ylmethyl)furo[3,2-b]pyridin-7-amine], the IC50 (in assay [1] (Homo sapiens); in the assay on total ATXN3 protein) was 501 to 5000 nM in each case. This molecule displayed an EC50 in the assay on ATXN3-HiBiT protein of 501 to 5000 nM.

On to `CC#Cc1c([C@H]2CC(F)(F)CC[C@@H]2N)oc2c(NCc3cccs3)cc(Cl)nc12` [Compound 52, 2-[(1S,2S)-2-amino-5,5-difluorocyclohexyl]-5-chloro-3-(1-propynyl)-7-thenylamino-1-oxa-4-azaindene], for which the IC50 in assay [1] (Homo sapiens) fell in the range of 0.01 to 100 nM.

As to `CC#Cc1c(C[C@@H](N)CC(F)(F)F)oc2c(NCc3ccco3)cc(Cl)nc12` [Compound 3, 2-[(R)-2-amino-4,4,4-trifluorobutyl]-5-chloro-7-(furfurylamino)-3-(1-propynyl)-1-oxa-4-azaindene], the IC50 (in assay [1] (Homo sapiens); in the assay with total ATXN3 protein) was 101 to 500 nM throughout. Further, in the assay with ATXN3-HiBiT protein, the EC50 was in the range of 101 to 500 nM.

For the molecule `CC#Cc1c(C[C@H](C)N)oc2c(NCc3ccco3)cc(Cl)nc12` [Compound 2, 2-[(S)-2-aminopropyl]-5-chloro-7-(furfurylamino)-3-(1-propynyl)-1-oxa-4-azaindene], the IC50 (in assay [1] (Homo sapiens); in the assay with total ATXN3 protein) was 101 to 500 nM in each case. The same molecule gave an EC50 in the assay with ATXN3-HiBiT protein of 101 to 500 nM. For `CC#Cc1c(C[C@@H](N)COC)oc2c(NCc3cccs3)cc(Cl)nc12` [Compound 21, 2-[(R)-2-amino-3-methoxypropyl]-5-chloro-3-(1-propynyl)-7-thenylamino-1-oxa-4-azaindene], the IC50 in assay [1] (Homo sapiens) lay within 0.01 to 100 nM; with total ATXN3 protein, 101 to 500 nM. Moreover, the EC50 in the assay with ATXN3-HiBiT protein is 0.01 to 100 nM. Take `C[C@H](F)[C@H](N)Cc1oc2c(NCc3ccco3)cc(Cl)nc2c1C#CC1CC1` [Compound 7, 2-[(2R,3S)-2-amino-3-fluorobutyl]-5-chloro-3-(2-cyclopropylethynyl)-7-(furfurylamino)-1-oxa-4-azaindene]: the IC50 (in assay [1] (Homo sapiens); with total ATXN3 protein) was 101 to 500 nM throughout. The EC50 in the assay on ATXN3-HiBiT protein lay within 101 to 500 nM. On to `CC#Cc1c(C[C@@H](N)CC(F)(F)F)oc2c(NCc3cccs3)cc(Cl)nc12` [Compound 4, 2-[(R)-2-amino-4,4,4-trifluorobutyl]-5-chloro-3-(1-propynyl)-7-thenylamino-1-oxa-4-azaindene], for which the IC50 (in assay [1] (Homo sapiens); with total ATXN3 protein) was 101 to 500 nM throughout. Moreover, the EC50 with ATXN3-HiBiT protein fell in the range of 101 to 500 nM. Consider `[2H]C([2H])([2H])OC[C@H](N)Cc1oc2c(NCc3cccs3)cc(Cl)nc2c1C#CC` [Compound 35, 2-[2-amino-3-(^2H3)methoxypropyl]-5-chloro-3-(1-propynyl)-7-thenylamino-1-oxa-4-azaindene], for which the 50% effective concentration (EC50) with ATXN3-HiBiT protein was 0.01 to 100 nM. On to `CC#Cc1c(C[C@@H](N)COC)oc2c(NCc3ccco3)cc(Cl)nc12` [Compound 39, 2-[(R)-2-amino-3-methoxypropyl]-5-chloro-7-(furfurylamino)-3-(1-propynyl)-1-oxa-4-azaindene], for which the IC50 in assay [1] (Homo sapiens) fell in the range of 101 to 500 nM; in the assay with total ATXN3 protein, 0.01 to 100 nM. Also, the EC50 in the assay on ATXN3-HiBiT protein is 0.01 to 100 nM.

As for `CC#Cc1c(C2CCC2N)oc2c(NCc3cccs3)cc(Cl)nc12` (single isomer, unassigned) [Compound 51, 2-(2-aminocyclobutyl)-5-chloro-3-(prop-1-yn-1-yl)-N-(thiophen-2-ylmethyl)furo[3,2-b]pyridin-7-amine], the IC50 in assay [1] lay within 501 to 5000 nM.

Take `CC#Cc1c(C2CCC2N)oc2c(NCc3cccs3)cc(Cl)nc12` (single isomer, unassigned) [Compound 50, 2-(2-aminocyclobutyl)-5-chloro-3-(prop-1-yn-1-yl)-N-(thiophen-2-ylmethyl)furo[3,2-b]pyridin-7-amine]: the IC50 in assay [1] (Homo sapiens) was 501 to 5000 nM.

In turn, “2-[(R)-2-amino-3-methoxy(1,1- ^2H2)propyl]-5-chloro-3-(1- propynyl)-7-thenylamino-1-oxa-4- azaindene [Compound 44]” yielded an EC50 in the assay on ATXN3-HiBiT protein of 0.01 to 100 nM. On the same count and under the same terms, under `[2H]C([2H])(c1oc2c(NCc3cccs3)cc(Cl)nc2c1C#CC)[C@@H](N)CF` [Compound 45, 2-[(R)-2-amino-3-fluoro(1,1- ^2H2)propyl]-5-chloro-3-(1-propynyl)-7-thenylamino-1-oxa-4-azaindene] stands 0.01 to 100 nM; under `[2H]C([2H])(OC(F)F)[C@H](N)Cc1oc2c(NCc3cccs3)cc(Cl)nc2c1C#CC` [Compound 48, 2-[(R)-2-amino-3-difluoromethoxy(3,3-^2H2)propyl]-5-chloro-3-(1-propynyl)-7-thenylamino-1-oxa-4-azaindene], 0.01 to 100 nM. The molecule `CC#Cc1c(C[C@@H](N)CO)oc2c(NCc3cccs3)cc(Cl)nc12` [Compound 34, (R)-2-amino-3-[5-chloro-3-(1-propynyl)-7-thenylamino-1-oxa-4-aza-2-indenyl]-1-propanol] registered an EC50 in the assay on ATXN3-HiBiT protein of 0.01 to 100 nM.

On to `[2H]C([2H])([2H])OC[C@H](N)Cc1oc2c(NC([2H])([2H])c3cccs3)cc(Cl)nc2c1C#CC` [Compound 40, 2-[(R)-2-amino-3-(^2H3)methoxypropyl]-5-chloro-3-(1-propynyl)-7-{[(2-thienyl)(^2H2)methyl]amino}-1-oxa-4-azaindene], for which, in the assay with ATXN3-HiBiT protein, the EC50 fell in the range of 0.01 to 100 nM. For the molecule `CC#Cc1c(C[C@@H](N)CCOC(F)F)oc2c(NCc3cccs3)cc(Cl)nc12` [Compound 31, 2-[(S)-2-amino-4-difluoromethoxybutyl]-5-chloro-3-(1-propynyl)-7-thenylamino-1-oxa-4-azaindene], the concentration for a half-maximal effect (EC50) in the assay on ATXN3-HiBiT protein is 0.01 to 100 nM. On to `[2H]C([2H])([2H])OC([2H])([2H])[C@H](N)Cc1oc2c(NCc3cccs3)cc(Cl)nc2c1C#CC` [Compound 47, 2-[(R)-2-amino-3-(^2H3)methoxy(3,3-^2H2)propyl]-5-chloro-3-(1-propynyl)-7-thenylamino-1-oxa-4-azaindene], for which, in the assay on ATXN3-HiBiT protein, the EC50 lay within 0.01 to 100 nM. Same read-out and setting: under `CC#Cc1c(C[C@@H](N)[C@H](C)F)oc2c(NCc3ccccc3F)cc(Cl)nc12` [Compound 13, 2-[(2R,3S)-2-amino-3-fluorobutyl]-5-chloro-7-{[(o-fluorophenyl)methyl]amino}-3-(1-propynyl)-1-oxa-4-azaindene] stands 501 to 5000 nM. With `CC#Cc1c([C@H]2CCCC[C@@H]2N)oc2c(NCc3cccs3)cc(Cl)nc12` [Compound 49, 2-[(1S,2S)-2-aminocyclohexyl]-5-chloro-3-(1-propynyl)-7-thenylamino-1-oxa-4-azaindene], the IC50 in assay [1] (Homo sapiens) is 0.01 to 100 nM. Still for that read-out and setting: under `CC#Cc1c(C[C@@H](N)[C@H](C)F)oc2c(NCc3cccs3)c(F)c(Cl)nc12` [Compound 37, 2-[(2R,3S)-2-amino-3-fluorobutyl]-5-chloro-6-fluoro-3-(1-propynyl)-7-thenylamino-1-oxa-4-azaindene] stands 501 to 5000 nM. Molecule `[2H]C([2H])(c1oc2c(NCc3cccs3)cc(Cl)nc2c1C#CC)[C@H](C)N` [Compound 43, 2-[(S)-2-amino(1,1-^2H2)propyl]-5-chloro-3-(1-propynyl)-7-thenylamino-1-oxa-4-azaindene] showed an EC50 in the assay with ATXN3-HiBiT protein of 0.01 to 100 nM. In turn, `CC#Cc1c(C[C@@H](N)[C@H](C)F)oc2c(NCc3c(F)cccc3F)cc(Cl)nc12` [Compound 14, 2-[(2R,3S)-2-amino-3-fluorobutyl]-5-chloro-7-{[(2,6-difluorophenyl)methyl]amino}-3-(1-propynyl)-1-oxa-4-azaindene] had an EC50 in the assay on ATXN3-HiBiT protein of 10000 to 40000 nM.

For the molecule `[2H]C([2H])([2H])OCC[C@H](N)Cc1oc2c(NCc3cccs3)cc(Cl)nc2c1C#CC` [Compound 42, 2-[(S)-2-amino-4-(^2H3)methoxybutyl]-5-chloro-3-(1-propynyl)-7-thenylamino-1-oxa-4-azaindene], in the assay with ATXN3-HiBiT protein, the EC50 was in the range of 0.01 to 100 nM.
